Assay results: patent US20200017496A1 (priority 2017, published 2020)

Tests used:
Assay in all cases: MIC of compounds alone and combined with antibacterials, broth microdilution (CLSI)
Assay type in all cases: cell-based
[1] = system: Citrobacter freundii (CFR) isolates
Summary of the method: (§1)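 Log-phase isolates at final 5·10^5 CFU/mL in cation-adjusted Mueller-Hinton broth, incubated 16-20 h at 35° C in ambient air. MIC read visually as lowest concentration preventing growth, for compound alone and for antibacterial at each compound concentration.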

[2] = system: Citrobacter koseri (CKR) isolates; conditions: AF1 @ 4 μg/mL
Summary of the method: as §1

[3] = system: Enterobacter cloacae (ECL) isolates
Summary of the method: as §1

[4] = system: Klebsiella oxytoca (KOX) isolates; conditions: AF1 @ 4 μg/mL
Summary of the method: as §1

[5] = system: Providencia rettgeri (PRE) isolates
Summary of the method: as §1

[6] = system: Salmonella typhimurium (STY) isolates; conditions: STY S3371; AF1 @ 4 μg/mL
Summary of the method: as §1

Measured: MIC ATB in combination

COCC1=C(C(=O)O)N2C(=O)[C@@H](NC(=O)/C(=N\OC)c3csc(N)n3)[C@H]2SC1 [POD, Cefpodoxime]
128 µg/mL: [3]; ECL 260033, AF1 @ 4 μg/mL
8 µg/mL: [2]; CKO UFR149 | [2]; CKO UFR150 | [3]; ECL 260253, AF1 @ 4 μg/mL | [3]; ECL UFR13, AF1 @ 4 μg/mL | [3]; ECL UFR14, AF1 @ 4 μg/mL | [3]; ECL UFR70, AF1 @ 4 μg/mL | [3]; strain ECL UFR197, antibacterial combined with AF1 @ 4 μg/mL | [3]; strain ECL UFR198, antibacterial combined with AF1 @ 4 μg/mL
<=0.25 μg/mL: [1]; CFR UFR10, AF1 @ 4 μg/mL | [1]; CFR UFR249, AF1 @ 4 μg/mL | [1]; strain CFR UFR253, antibacterial combined with AF1 @ 4 μg/mL | [1]; strain CFR UFR254, antibacterial combined with AF1 @ 4 μg/mL | [3]; ECL 190408, AF1 @ 4 μg/mL | [4]; KOX UFR223 | [4]; KOX UFR224 | [6]
2 µg/mL: [2]; CKO ROU | [3]; strain ECL UFR196, antibacterial combined with AF1 @ 4 μg/mL
0.5 µg/mL: [1]; CFR UFR250, AF1 @ 4 μg/mL | [4]; KOX UFR173
>128 µg/mL: [1]; CFR UFR83, AF1 @ 4 μg/mL | [3]; ECL 2185D, AF1 @ 4 μg/mL | [5]; PRE UFR99, AF1 @ 4 μg/mL
4 µg/mL: [3]; ECL UFR85, AF1 @ 4 μg/mL
64 µg/mL: [3]; ECL 190310, AF1 @ 4 μg/mL
16 µg/mL: [1]; CFR UFR11, AF1 @ 4 μg/mL | [3]; ECL NEM146383, AF1 @ 4 μg/mL | [3]; ECL P99, AF1 @ 4 μg/mL
1 µg/mL: [1]; CFR UFR146, AF1 @ 4 μg/mL | [1]; CFR UFR248, AF1 @ 4 μg/mL | [3]; ECL 200322, AF1 @ 4 μg/mL | [3]; ECL 260508, AF1 @ 4 μg/mL | [3]; ECL UFR12, AF1 @ 4 μg/mL | [3]; ECL UFR60, AF1 @ 4 μg/mL | [3]; ECL UFR194, AF1 @ 4 μg/mL | [3]; ECL UFR200, AF1 @ 4 μg/mL | [3]; strain ECL UFR195, antibacterial combined with AF1 @ 4 μg/mL | [4]; KOX UFR21 | [5]; strain PRE UFR236, antibacterial combined with AF1 @ 4 μg/mL
32 µg/mL: [3]; ECL 200138, AF1 @ 4 μg/mL | [3]; ECL 260323, AF1 @ 4 μg/mL | [3]; ECL UFR84, AF1 @ 4 μg/mL
